Peptide text beside a SMILES is read from it.

One test has as its system CD8+ T cells. In words: peptide:MHC multimer/tetramer staining of enriched T cells (flow cytometry). Type of test: cell-based, human. As to conditions: for pMHC staining % pMHC+ CD8+ in CD3+: Table 4, enriched T cells after enrichment cycles. Here is the method: Enrichment of epitope-specific CD8 T cells was performed according to the protocol described by Butler et al., Clin Cancer Res.;13(6):1857-1867 (2007), doi:10.1158/1078-0432, but included the following amendments. CD8+ T lymphocytes were collected from PBMCs by magnetic-activated cell sorting (MACS) according to the CD8 isolation kit (Miltenyi Biotec). CD8+ T cells with >95% purity were subsequently cultured in T cell medium supplemented with IL-2 (36 IU/mL; but no gentamycin) for 1 day, after which expansion cycles started. K562ABC cells (kindly provided by prof. Bruce Levine, University of Pennsylvania, PA) were loaded with 10 μg/ml ROPN1 and/or ROPN1B peptide and incubated for 5 h at RT in serum-free medium, after which cells were washed and fixed with 0,1% paraformaldehyde. After washing, K562ABC cells were suspended at 0.1×10^6/mL and co-cultured with T cells in a 1:20 ratio. IL-2 (36 IU/mL) and IL-15 ([…]) were added at days 1 and 3 days after start of co-culture, and after 6 days, T cells were counted, suspended at 2×10^6/mL and rested for 1 day, after which the next cycle commenced (this schedule continued up to 4 or 5 cycles). Following 4 and 5 cycles, T cells were stained with pMHC multimers (HLA*0201/MLN, Immudex, Copenhagen, Denmark). pMHC-PE were pre-incubated at RT for 10 min followed by incubation with 7AAD, anti-CD3-FITC and anti-CD8-APC for 20 min. Cells were fixed with 1% paraformaldehyde and TCR expression was measured with flow cytometry and analyzed using FlowJoX software. FIG. 4A schematically depicts the procedure to enrich epitope-specific T cells, and obtainthe corresponding TCR genes.
Following enrichment, T cells were tested for ROPN1 and/or ROPN1B epitope-specific IFNY production. To this end, T2 cells (1×10^6/mL) were loaded with peptide (20 ng/mL) for 30 min, after which T cells (1×10^5) were cultured in a 1:1 ratio with T2 cells in a round bottom 96-wells plate for 18 h. Supernatant was collected and IFN-γ production was measured with an Enzyme-linked immunosorbent assay (ELISA, BioLegend) according to the manufacturer's protocol (FIG. 9A). T2 cells loaded with an irrelevant peptide were included as a negative control. T cell IFNg production was considered epitope-specific in case levels exceeded 200 pg/ml, and levels were minimally twice as high as for irrelevant peptide (see for full listing of criteria, FIG. 8). T cells that fulfilled these criteria were stained with peptide:MHC (pMHC) tetramers to determine the frequency of epitope-specific T cells. Empty Loadable HLA Tetramers (5 μL, Tetramer shop, Kongens Lyngby, Denmark) were incubated with 0.5 μL peptide (200 μM) for 30 min on ice. Complexes of pMHC were centrifuged (3300 g, 5 min) and incubated with 0.1×10^6 T cells for 15 min at 37° C. in the dark. Next, an antibody cocktail containing CD3-FITC (1:30, BD) and CD8-APC (1:300, eBiosciences) was added and incubated for an additional 30 min at 4° C. in the dark. Finally, T cells were washed twice and fixed with 1% paraformaldehyde (PFA), after which events were acquired with FACSCelesta (BD) and analyzed using FlowJoX software.
In general terms: In flow cytometry, cells or beads pass a laser one at a time.

A further test concerns the target peptide:MHC (Homo sapiens, UniProt P04439, D140Y/D185E/D98H/E176V/E277Q/G131W/G231S/I119V/I121R/I166T/I218V/N151K/N90K/P208A/P217A/Q86G/Q94H/R138H/R169H). As to the kind of experiment: TCR gene transfer into healthy donor T cells, surface expression by pMHC staining. Type of test: cell-based. The conditions noted are these: Table 4; T cells transduced with TCR specific for the epitope.
From the text: (§1) Identified TCRα and TCRβ genes were codon optimized (GeneArt, Regensburg, Germany) and cloned into the pMP71 vector (a kind gift of prof. Wolfgang Uckert, MDC, Berlin, Germany) using a TCRβ-2A-TCRα cassette that was flanked by NotI and EcoRI restriction sites. Upon activation with anti-CD3 mAb OKT3, PBMCs from healthy donors were transduced with TCR-encoding retroviruses (pMP71) or empty vector that were produced by a co-culture of 293T and Phoenix-Ampho packaging cells, as described previously in Lamers et al., Cancer Gene Ther.;13(5):503-509 (2006), doi:10.1038/sj.cgt.7700916, and Straetemans G, Clin Dev Immunol, 2012. Staining for surface-expressed TCR transgenes was performed as described above (FIG. 5A,B).
as §1, with “TCRα” for “Identified TCRα”, “TCR13-2A-TCRα” for “TCRβ-2A-TCRα”, “2012.” for “2012. Staining for surface-expressed TCR transgenes was performed as described above (FIG. 5A,B).”
Staining for surface-expressed TCR transgenes was performed as described above. […] Note that for a single epitope (EVI; SEQ ID NO:24) pMHC complexes were insensitive to detect TCR T cells and replaced by stainings with antibodies directed against TCR-Vb7.1 and CD137. The expression of CD137 was measured following 48 h stimulation with EVI epitope-loaded BSM cells, and threshold for inclusion again being expression in more than 5% of cells in the CD3-positive cell population in at least 2 donors.

Test [1] deals with ROPN1 or ROPN1B over-expressing MDA-MB231 tumor cells. In words: IFNg production of TCR T cells co-cultured with ROPN1 or ROPN1B over-expressing tumor cells (endogenously processed epitope). Type of test: cell-based, human. As to conditions: Table 4; responding TCRs / TCRs tested, T cells transduced with TCR specific for the epitope. The method, then:
In a first series of in vitro tests, TCR-transduced T cells (6×10^4/well in a 96-well plate) were co-cultured with ROPN1 or ROPN1B over-expressing MDA-MB231 tumor cells (2×10^4/well) in a total volume of 200 μl of T cell medium for 24 h at 37° C. The ROPN1 or ROPN1B over-expressing tumor cells were generated as described under ‘generation and culture of cell lines and T cells’ (see above), and tumor cells were pre-treated 48 h with IFN-Y before co-culture with T cells. […] T cells that fulfilled these criteria (examples in FIG. 10A) were assessed for their sensitivity towards their cognate epitope. […] EC50 values were calculated using GraphPad Prism 5 software.

Consider `CSCC[C@H](NC(=O)[C@H](CCC(N)=O)NC(=O)[C@H](C)N)C(=O)N[C@@H](Cc1c[nH]c2ccccc12)C(=O)N[C@@H](CCCCN)C(=O)N[C@H](C(=O)N[C@H](C(=O)N[C@@H](CC(N)=O)C(=O)N[C@@H](CC(C)C)C(=O)O)C(C)C)C(C)C` (H-AQMWKVVNL-OH; N-terminus and C-terminus assumed), for which the “pMHC staining % pMHC+ CD8+ in CD3+” value in the test with CD8+ T cells was determined as 2.58%. In addition, the “Surface expression % pMHC+ in CD3+” value on peptide:MHC is recorded as 49.7%. In addition, the “T cell responses observed (IFNg) against endogenously presented epitope” value (from here on “T cell responses observed (IFNg)”) in test [1] is listed as 0/1 responses.

On to `CC[C@H](C)[C@H](NC(=O)[C@H](Cc1ccc(O)cc1)NC(=O)[C@@H](NC(=O)[C@H](Cc1ccc(O)cc1)NC(=O)[C@H](CC(C)C)NC(=O)[C@@H](N)Cc1ccccc1)[C@@H](C)O)C(=O)N[C@@H](C)C(=O)N[C@@H](CCC(=O)O)C(=O)N[C@H](C(=O)O)C(C)C` (H-FLYTYIAEV-OH; N-terminus and C-terminus assumed), for which the “pMHC staining % pMHC+ CD8+ in CD3+” value with CD8+ T cells is reported as 1.34%. Also, the “Surface expression % pMHC+ in CD3+” value at peptide:MHC stood at 5.02%. The “T cell responses observed (IFNg)” value in test [1] is given as 1/1 responses.

`CC[C@H](C)[C@H](NC(=O)[C@H](Cc1ccc(O)cc1)NC(=O)[C@@H](NC(=O)[C@H](Cc1ccc(O)cc1)NC(=O)[C@H](CC(C)C)NC(=O)[C@@H](N)Cc1ccccc1)[C@@H](C)O)C(=O)N[C@@H](C)C(=O)N[C@@H](CCCCN)C(=O)N[C@H](C(=O)O)C(C)C` (H-FLYTYIAKV-OH; N-terminus and C-terminus assumed): the “pMHC staining % pMHC+ CD8+ in CD3+” value with CD8+ T cells is 2.76%. For the same compound, the “Surface expression % pMHC+ in CD3+” value on peptide:MHC came out at 33.2%. Moreover, the “T cell responses observed (IFNg)” value in test [1] is 1/1 responses.

Take `CC[C@H](C)[C@H](NC(=O)[C@H](Cc1ccc(O)cc1)NC(=O)[C@H](CC(N)=O)NC(=O)[C@H](CC(C)C)NC(=O)[C@@H](N)CCSC)C(=O)N[C@@H](CCC(=O)O)C(=O)N[C@@H](CCC(N)=O)C(=O)N[C@@H](CCC(=O)O)C(=O)N[C@H](C(=O)O)C(C)C` (H-MLNYIEQEV-OH; N-terminus and C-terminus assumed): the “pMHC staining % pMHC+ CD8+ in CD3+” value with CD8+ T cells worked out at 13.3%. Moreover, the “enriched T cells binding MLN/HLA-A2 complexes” value in the test with CD8+ T cells (after 4 cycles of co-culture with epitope-loaded aAPC) amounted to 20%; with CD8+ T cells (after 5 cycles of co-culture with epitope-loaded aAPC), 62%. Moreover, the “Surface expression % pMHC+ in CD3+” value on peptide:MHC worked out at 49.7%. For the same compound, the “T cell responses observed (IFNg)” value in test [1] is reported as 0/2 responses.

For the origin of these results see patent publication US20240131155A1, “T CELLS FOR USE IN THERAPY” (Erasmus University Medical Center Rotterdam, priority 2021, published 2024).
